Holding throughout (type): in vivo
In test [1] the test system is Beet Armyworm (Spodoptera exigua, LAPHEG). Nature of the test: Bioassay on Beet Armyworm (BAW), 128-well diet tray assay. The gist of the method: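 In a 128-well format, eight wells per compound received a surface dose of 50 μg/cm^2 on artificial diet. After drying, each well got one to five second instar larvae, held at 25° C. with 14:10 photoperiod. Mortality percentages after five to seven days were averaged.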

Test [2] concerns Cabbage Looper (Trichoplusia ni, TRIPNI). Nature of the test: Bioassay on Cabbage Looper (CL), 128-well diet tray assay. To be noted: Trichoplusia ni. An outline of the steps:
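Mortality of second instar larvae exposed to diet coated with 50 μg/cm^2 compound (acetone-water 90:10 vehicle, dried); 25° C., 5–7 days.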

The subject of test [3] is Yellow Fever Mosquito (Aedes aegypti, AEDSAE). Put plainly: Bioassay on Yellow Fever Mosquito (YFM), 96-well plate larval assay. Conditions: for YFM rating: Yellow Fever Mosquito, 96-well plate larval assay; for YFM (Biological Results, rating): Species YFM (Yellow Fever Mosquito). The gist of the method: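 Each well was scored for mortality after 3 days at room temperature under a non-evaporative lid. Test molecules came from DMSO masters (4000 ppm stock) diluted with water/acetone 90:10 and dispensed into six replicate plates, which were then infested with roughly 1-day-old larvae in liver-powder water.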

The mark [4] stands for this setting: Beet Armyworm, 128-well diet tray assay, read-out: BAW rating.
The mark [5] stands for this setting: Cabbage Looper, 128-well diet tray assay, read-out: CL rating.
[6] abbreviates: Species BAW (Beet Armyworm), read-out: BAW (Biological Results, rating).
[7] abbreviates: Species CL (Cabbage Looper), read-out: CL (Biological Results, rating).

Read-outs that look alike come from different tables or passages of the source.

As for `O=C(Nc1nc2ccccc2s1)c1cc(NC(=O)C2C(c3cc(Cl)cc(Cl)c3)C2(Cl)Cl)ccc1Cl` (stereo not drawn) [F441, N-(Benzo[d]thiazol-2-yl)-2-chloro-5-(trans)-2,2-dichloro-3-(3,5-dichlorophenyl)cyclopropane-1-carboxamido)benzamide], the pest or weed control at 50 µg/cm2 in test [1] (setting [4]) and in test [2] (setting [5]) was 50 to 100% in each case. The YFM rating result in test [3] is listed as “B (More than 0-Less than 80)”.
With `Nc1c(F)ccc(NC(=O)c2cc(NC(=O)[C@H]3[C@H](c4ccc(Cl)c(Cl)c4)C3(Cl)Cl)ccc2Cl)c1F` [F314, N-(3-Amino-2,4-difluorophenyl)-2-chloro-5-((1R,3R)-2,2-dichloro-3-(3,4-dichlorophenyl)cyclopropane-1-carboxamido)benzamide], the pest or weed control at 50 µg/cm2 in test [1] (setting [6]) and in test [2] (setting [7]) was 50 to 100% in each case. For the same compound, the “YFM (Biological Results, rating)” value in test [3] is “A (80-100)”.
Turning to `N#Cc1cc(C(F)(F)F)ccc1NC(=O)c1cc(NC(=O)[C@H]2[C@H](c3cc(Cl)cc(Cl)c3)C2(Cl)Cl)ccc1Cl` (relative stereo) [F232, 2-Chloro-N-(2-cyano-4-(trifluoromethyl)phenyl)-5-(trans-2,2-dichloro-3-(3,5-dichlorophenyl)cyclopropane-1-carboxamido)benzamide], the pest or weed control at 50 µg/cm2 in test [1] (setting [6]) and in test [2] (setting [7]) was 50 to 100% in each case. In test [3], the “YFM (Biological Results, rating)” value is “A (80-100)”.
With `O=C(Nc1ccc([N+](=O)[O-])cn1)c1cc(NC(=O)[C@H]2[C@H](c3cc(Cl)cc(Cl)c3)C2(Cl)Cl)ccc1Cl` (relative stereo) [F293, 2-Chloro-5-(trans-2,2-dichloro-3-(3,5-dichlorophenyl)cyclopropane-1-carboxamido)-N-(5-nitropyridin-2-yl)benzamide], the pest or weed control at 50 µg/cm2 in test [1] (setting [6]) and in test [2] (setting [7]) was 50 to 100% in each case. The “YFM (Biological Results, rating)” value in test [3] is “A (80-100)”.
In the case of `O=C(Nc1ccc(F)cc1)c1cc(NC(=O)[C@H]2[C@H](c3cc(Cl)cc(Cl)c3)C2(Br)Br)ccc1Cl` (relative stereo) [F122, trans-2-Chloro-5-(2,2-dibromo-3-(3,5-dichlorophenyl)cyclopropane-1-carboxamido)-N-(4-fluorophenyl)benzamide], the pest or weed control at 50 µg/cm2 in test [1] (setting [6]) and in test [2] (setting [7]) was 50 to 100% throughout. The “YFM (Biological Results, rating)” value in test [3] is listed as “B (More than 0-Less than 80)”.
For `CN(C(=O)c1cc(NC(=O)[C@H]2[C@H](c3ccc(F)c(C(F)F)c3)C2(Cl)Cl)ccc1Cl)c1ccc(F)cc1` (relative stereo) [F595, 2-Chloro-5-(trans-2,2-dichloro-3-(3-(difluoromethyl)-4-fluorophenyl)cyclopropane-1-carboxamido)-N-(4-fluorophenyl)-N-methylbenzamide], the pest or weed control at 50 µg/cm2 in test [1] (setting [4]) and in test [2] (setting [5]) was 50 to 100% throughout. Further, in test [3], the YFM rating result was “A (80-100)”.
Take `CC(=O)Nc1ccc(NC(=O)c2cc(NC(=O)[C@H]3[C@H](c4cc(Cl)cc(Cl)c4)C3(Cl)Cl)ccc2Cl)c(F)c1` (relative stereo) [PF40, trans-N-(4-Acetamido-2-fluorophenyl)-2-chloro-5-(2,2-dichloro-3-(3,5-dichlorophenyl)cyclopropane-1-carboxamido)benzamide]: the pest or weed control at 50 µg/cm2 in test [1] (setting [4]) and in test [2] (setting [5]) was 50 to 100% throughout. Moreover, in test [3], the YFM rating result was “A (80-100)”.
Consider `O=C(Nc1ncc(F)cc1F)c1cc(NC(=O)[C@H]2[C@H](c3cc(Cl)cc(Cl)c3)C2(Cl)Cl)ccc1Cl` (relative stereo) [F241, trans-2-Chloro-5-(2,2-dichloro-3-(3,5-dichlorophenyl)cyclopropane-1-carboxamido)-N-(3,5-difluoropyridin-2-yl)benzamide], for which the pest or weed control at 50 µg/cm2 in test [1] (setting [6]) and in test [2] (setting [7]) was 50 to 100% throughout. The “YFM (Biological Results, rating)” value in test [3] is on record as “A (80-100)”.
Regarding `O=C(Nc1ccc(Cl)c(C(=O)N(CC(F)(F)F)c2ccc(F)cc2)c1)[C@H]1[C@H](c2cc(Cl)cc(Cl)c2)C1(Cl)Cl` (relative stereo) [F100, trans-2-Chloro-5-(2,2-dichloro-3-(3,5-dichlorophenyl)cyclopropane-1-carboxamido)-N-(4-fluorophenyl)-N-(2,2,2-trifluoroethyl)benzamide], the pest or weed control at 50 µg/cm2 in test [1] (setting [6]) and in test [2] (setting [7]) was 50 to 100% in each case. In test [3], the “YFM (Biological Results, rating)” value is recorded as “A (80-100)”.
Take `O=C(Nc1cc2ocnc2cc1F)c1cc(NC(=O)C2C(c3cc(Cl)cc(Cl)c3)C2(Cl)Cl)ccc1Cl` (stereo not drawn) [F453, 2-Chloro-5-(trans)-2,2-dichloro-3-(3,5-dichlorophenyl)cyclopropane-1-carboxamido)-N-(5-fluorobenzo[d]oxazol-6-yl)benzamide]: the pest or weed control at 50 µg/cm2 in test [1] (setting [4]) and in test [2] (setting [5]) was 50 to 100% throughout. The YFM rating result in test [3] is recorded as “A (80-100)”.
As for `C=C(F)c1cc([C@H]2[C@H](C(=O)Nc3ccc(Cl)c(C(=O)Nc4ccc(F)cc4F)c3)C2(Cl)Cl)ccc1Cl` (relative stereo) [F385, 2-Chloro-5-(trans-2,2-dichloro-3-(4-chloro-3-(1-fluorovinyl)phenyl)cyclopropane-1-carboxamido)-N-(2,4-difluorophenyl)benzamide], the pest or weed control at 50 µg/cm2 in test [1] (setting [4]) and in test [2] (setting [5]) was 50 to 100% in each case. Also, the YFM rating entry in test [3] is “A (80-100)”.
`Nc1cncc(NC(=O)c2cc(NC(=O)[C@H]3[C@H](c4ccc(Cl)c(Cl)c4)C3(Cl)Cl)ccc2Cl)c1` [F363, N-(5-Aminopyridin-3-yl)-2-chloro-5-((1R,3R)-2,2-dichloro-3-(3,4-dichlorophenyl)cyclopropane-1-carboxamido)benzamide]: the pest or weed control at 50 µg/cm2 in test [1] (setting [6]) and in test [2] (setting [7]) was 50 to 100% throughout. The “YFM (Biological Results, rating)” value in test [3] is listed as “A (80-100)”.
As to `C/S(=N\C#N)c1ccc(NC(=O)c2cc(NC(=O)C3C(c4cc(Cl)cc(Cl)c4)C3(Cl)Cl)ccc2Cl)cc1` (stereo not drawn) [F495, trans-2-chloro-N-(4-(N-cyano-S-methylsulfinimidoyl)phenyl)-5-(2,2-dichloro-3-(3,5-dichlorophenyl)cyclopropane-1-carboxamido)benzamide], the pest or weed control at 50 µg/cm2 in test [1] (setting [4]) and in test [2] (setting [5]) was 50 to 100% in each case. In addition, the YFM rating entry in test [3] is given as “A (80-100)”.
With `Cc1cc(N)ccc1NC(=O)c1cccc(NC(=O)[C@H]2[C@H](c3ccc(Cl)c(Cl)c3)C2(Cl)Cl)c1` (relative stereo) [F265, trans-N-(4-Amino-2-methylphenyl)-3-(2,2-dichloro-3-(3,4-dichlorophenyl)cyclopropane-1-carboxamido)benzamide], the pest or weed control at 50 µg/cm2 in test [1] (setting [6]) and in test [2] (setting [7]) was 50 to 100% in each case. In test [3], the “YFM (Biological Results, rating)” value is listed as “A (80-100)”.
With `Nc1ccc(NC(=O)c2cc(NC(=O)[C@H]3[C@H](c4cc(Cl)cc(Cl)c4)C3(Cl)Cl)ccc2Cl)nc1` (relative stereo) [F305, N-(5-Aminopyridin-2-yl)-2-chloro-5-(trans-2,2-dichloro-3-(3,5-dichlorophenyl)cyclopropane-1-carboxamido)benzamide], the pest or weed control at 50 µg/cm2 in test [1] (setting [6]) and in test [2] (setting [7]) was 50 to 100% throughout. The “YFM (Biological Results, rating)” value in test [3] is “A (80-100)”.
Turning to `Cc1cc(F)cnc1NC(=O)c1cc(NC(=O)[C@H]2[C@H](c3cc(Cl)cc(Cl)c3)C2(Cl)Cl)ccc1Cl` (relative stereo) [F242, trans-2-Chloro-5-(2,2-dichloro-3-(3,5-dichlorophenyl)cyclopropane-1-carboxamido)-N-(5-fluoro-3-methylpyridin-2-yl)benzamide], the pest or weed control at 50 µg/cm2 in test [1] (setting [6]) and in test [2] (setting [7]) was 50 to 100% each time. In addition, the “YFM (Biological Results, rating)” value in test [3] was “A (80-100)”.
`CN(C(=O)c1cc(NC(=O)[C@H]2[C@H](c3cc(Cl)c(Cl)c(Cl)c3)C2(Cl)Cl)ccc1F)c1ccccc1` (relative stereo) [F68, trans-5-(2,2-Dichloro-3-(3,4,5-trichlorophenyl)cyclopropane-1-carboxamido)-2-fluoro-N-methyl-N-phenylbenzamide]: the pest or weed control at 50 µg/cm2 in test [1] (setting [6]) and in test [2] (setting [7]) was 50 to 100% throughout. Also, the “YFM (Biological Results, rating)” value in test [3] is “B (More than 0-Less than 80)”.
For `O=C(Nc1ccc([N+](=O)[O-])cc1F)c1cc(NC(=O)[C@H]2[C@H](c3cc(Cl)cc(Cl)c3)C2(Cl)Cl)ccc1Cl` (relative stereo) [PF74, trans-2-Chloro-5-(2,2-dichloro-3-(3,5-dichlorophenyl)cyclopropane-1-carboxamido)-N-(2-fluoro-4-nitrophenyl)benzamide], the pest or weed control at 50 µg/cm2 in test [1] (setting [4]) and in test [2] (setting [5]) was 50 to 100% each time. Further, in test [3], the YFM rating result is given as “A (80-100)”.
For the compound `Cc1cc(NC(=O)OC(C)(C)C)ccc1NC(=O)c1cc(NC(=O)[C@H]2[C@H](c3cc(Cl)cc(Cl)c3)C2(Cl)Cl)ccc1Cl` [F275, tert-Butyl (4-(2-chloro-5-((1R,3R)-2,2-dichloro-3-(3,5-dichlorophenyl)cyclopropane-1-carboxamido)benzamido)-3-methylphenyl)carbamate], the pest or weed control at 50 µg/cm2 in test [1] (setting [6]) and in test [2] (setting [7]) was 50 to 100% throughout. For the same compound, the “YFM (Biological Results, rating)” value in test [3] is “A (80-100)”.

The record behind these values is patent US10219516B2, “Molecules having pesticidal utility, and intermediates, compositions, and processes, related thereto” (priority 2015, dated 2019).
